Measured values published in patent US11486880B2, “Method of measuring harshness of a surfactant” (Conopeo, Inc., priority 2018, dated 2022).

Tested on: Zein protein
Experiment: Harshness of surfactant by dye release from solid Zein protein-Coomassie Blue R dye complex (CIE L*a*b colour change)
Set-up: species or system corn
Conditions: 10 wt % surfactant dilution; disc of protein-dye complex soaked 15 minutes; decrease in b* between first and second colour measurement; lower b = harsher; three replicates
Protocol: Zein powder (10 wt %) and Coomassie Blue R dye (0.1%) were added to a glass jar, and made up to 100 wt % with 90:10 aqueous ethanol (90 ethanol: 10 water). The mixture was left to disperse with stirring for 12 hours to produce protein-dye complex solution.
2 g of the protein-dye complex solution was added to four petri dishes and dried overnight under ambient conditions. The dried discs of protein-dye complex were then removed from the petri dishes and stored until required.
Dilutions (10 wt %) of four surfactants were prepared and a first colour measurement of each dilution was taken using CIEL*a*b on a Konica Minolta spectrometer.
A disc of protein-dye complex was added to each surfactant dilution, and soaked for 15 minutes. A second colour measurement was obtained of the resulting solutions. The decrease in b* value between the first and second colour measurement indicated the increase in blue colour. The lower the b value the ‘bluer’ the sample and the harsher the formulation. Three samples from each surfactant solution were measured as replicates.

Row | Average Δb* | SMILES
1 | −11.2625 | CCCCCCCCCCO[C@@H]1O[C@H](CO)[C@@H](O)[C@H](O)[C@H]1O [Decyl Glucoside]
2 | −49.465 | CCCCCCCCCCCCOS(=O)(=O)[O-].[Na+] [SDS]
